Laboratory results published in the NIST ThermoML archive (doi:10.1016/j.tca.2015.06.017).
Numbers after ± are expanded uncertainties.

Settings: Liquid, Vibrating tube method

In the case of `CCCCCCC` [heptane], the mass density (283.15 K, 100 kPa) is reported as 692.57 ± 0.25 kg/m3, the mass density (283.15 K, 2000 kPa) is reported as 694.49 ± 0.27 kg/m3 and the mass density (283.15 K, 5000 kPa) is reported as 697.06 ± 0.3 kg/m3. The mass density (283.15 K, 7000 kPa) was 698.8 ± 0.33 kg/m3, the mass density (283.15 K, 10000 kPa) was 701.2 ± 0.36 kg/m3 and the mass density (283.15 K, 20000 kPa) was 709.08 ± 0.47 kg/m3. It also gave a mass density (283.15 K, 30000 kPa) of 716.12 ± 0.57 kg/m3, a mass density (283.15 K, 40000 kPa) of 722.63 ± 0.67 kg/m3 and a mass density (283.15 K, 50000 kPa) of 728.63 ± 0.77 kg/m3. The mass density (283.15 K, 60000 kPa) was 734.33 ± 0.86 kg/m3, the mass density (283.15 K, 65000 kPa) was 736.99 ± 0.9 kg/m3 and the mass density (288.15 K, 100 kPa) was 688.55 ± 0.25 kg/m3. It also gave a mass density (288.15 K, 2000 kPa) of 690.28 ± 0.27 kg/m3, a mass density (288.15 K, 5000 kPa) of 693.01 ± 0.3 kg/m3 and a mass density (288.15 K, 7000 kPa) of 694.77 ± 0.33 kg/m3. The mass density (288.15 K, 10000 kPa) was 697.23 ± 0.36 kg/m3, the mass density (288.15 K, 20000 kPa) was 705.18 ± 0.47 kg/m3 and the mass density (288.15 K, 30000 kPa) was 712.38 ± 0.58 kg/m3. It also gave a mass density (288.15 K, 40000 kPa) of 719.01 ± 0.68 kg/m3, a mass density (288.15 K, 50000 kPa) of 725.2 ± 0.77 kg/m3 and a mass density (288.15 K, 60000 kPa) of 731.01 ± 0.87 kg/m3. It also gave a mass density (288.15 K, 65000 kPa) of 733.73 ± 0.91 kg/m3, a mass density (293.15 K, 100 kPa) of 684.19 ± 0.25 kg/m3 and a mass density (293.15 K, 2000 kPa) of 686.15 ± 0.27 kg/m3. It also gave a mass density (293.15 K, 5000 kPa) of 688.99 ± 0.31 kg/m3, a mass density (293.15 K, 7000 kPa) of 690.74 ± 0.33 kg/m3 and a mass density (293.15 K, 10000 kPa) of 693.41 ± 0.36 kg/m3. For the same compound, the mass density (293.15 K, 20000 kPa) was 701.57 ± 0.48 kg/m3, the mass density (293.15 K, 30000 kPa) was 708.99 ± 0.58 kg/m3 and the mass density (293.15 K, 40000 kPa) was 715.7 ± 0.68 kg/m3. For the same compound, the mass density (293.15 K, 50000 kPa) was 722.03 ± 0.78 kg/m3, the mass density (293.15 K, 60000 kPa) was 728.02 ± 0.87 kg/m3 and the mass density (293.15 K, 65000 kPa) was 730.72 ± 0.92 kg/m3. The mass density (298.15 K, 100 kPa) was 679.95 ± 0.25 kg/m3, the mass density (298.15 K, 2000 kPa) was 682.02 ± 0.27 kg/m3 and the mass density (298.15 K, 5000 kPa) was 684.8 ± 0.31 kg/m3. The mass density (298.15 K, 7000 kPa) was 686.68 ± 0.33 kg/m3, the mass density (298.15 K, 10000 kPa) was 689.23 ± 0.37 kg/m3 and the mass density (298.15 K, 20000 kPa) was 697.65 ± 0.48 kg/m3. For the same compound, the mass density (298.15 K, 30000 kPa) was 705.17 ± 0.59 kg/m3, the mass density (298.15 K, 40000 kPa) was 712.11 ± 0.69 kg/m3 and the mass density (298.15 K, 50000 kPa) was 718.54 ± 0.79 kg/m3. For the same compound, the mass density (298.15 K, 60000 kPa) was 724.73 ± 0.88 kg/m3, the mass density (298.15 K, 65000 kPa) was 727.65 ± 0.93 kg/m3 and the mass density (303.15 K, 100 kPa) was 675.68 ± 0.25 kg/m3. The mass density (303.15 K, 2000 kPa) was 677.75 ± 0.27 kg/m3, the mass density (303.15 K, 5000 kPa) was 680.76 ± 0.31 kg/m3 and the mass density (303.15 K, 7000 kPa) was 682.65 ± 0.33 kg/m3. The mass density (303.15 K, 10000 kPa) was 685.52 ± 0.37 kg/m3, the mass density (303.15 K, 20000 kPa) was 694.07 ± 0.48 kg/m3 and the mass density (303.15 K, 30000 kPa) was 701.86 ± 0.59 kg/m3. The mass density (303.15 K, 40000 kPa) was 708.87 ± 0.69 kg/m3, the mass density (303.15 K, 50000 kPa) was 715.5 ± 0.79 kg/m3 and the mass density (303.15 K, 60000 kPa) was 721.67 ± 0.89 kg/m3. It also gave a mass density (303.15 K, 65000 kPa) of 724.56 ± 0.93 kg/m3, a mass density (308.15 K, 100 kPa) of 671.39 ± 0.25 kg/m3 and a mass density (308.15 K, 2000 kPa) of 673.45 ± 0.27 kg/m3. The mass density (308.15 K, 5000 kPa) was 676.49 ± 0.31 kg/m3, the mass density (308.15 K, 7000 kPa) was 678.48 ± 0.33 kg/m3 and the mass density (308.15 K, 10000 kPa) was 681.37 ± 0.37 kg/m3. It also gave a mass density (308.15 K, 20000 kPa) of 690.12 ± 0.49 kg/m3, a mass density (308.15 K, 30000 kPa) of 698.22 ± 0.6 kg/m3 and a mass density (308.15 K, 40000 kPa) of 705.32 ± 0.7 kg/m3. For the same compound, the mass density (308.15 K, 50000 kPa) was 712.12 ± 0.8 kg/m3, the mass density (308.15 K, 60000 kPa) was 718.41 ± 0.9 kg/m3 and the mass density (308.15 K, 65000 kPa) was 721.43 ± 0.94 kg/m3. It also gave a mass density (313.15 K, 100 kPa) of 667.06 ± 0.25 kg/m3, a mass density (313.15 K, 2000 kPa) of 669.26 ± 0.27 kg/m3 and a mass density (313.15 K, 5000 kPa) of 672.35 ± 0.31 kg/m3. For the same compound, the mass density (313.15 K, 7000 kPa) was 674.51 ± 0.34 kg/m3, the mass density (313.15 K, 10000 kPa) was 677.42 ± 0.37 kg/m3 and the mass density (313.15 K, 20000 kPa) was 686.53 ± 0.49 kg/m3. The mass density (313.15 K, 30000 kPa) was 694.65 ± 0.6 kg/m3, the mass density (313.15 K, 40000 kPa) was 702.08 ± 0.71 kg/m3 and the mass density (313.15 K, 50000 kPa) was 708.98 ± 0.81 kg/m3. For the same compound, the mass density (313.15 K, 60000 kPa) was 715.39 ± 0.9 kg/m3, the mass density (313.15 K, 65000 kPa) was 718.32 ± 0.95 kg/m3 and the mass density (318.15 K, 100 kPa) was 662.54 ± 0.25 kg/m3. It also gave a mass density (318.15 K, 2000 kPa) of 664.87 ± 0.27 kg/m3, a mass density (318.15 K, 5000 kPa) of 668.35 ± 0.31 kg/m3 and a mass density (318.15 K, 7000 kPa) of 670.32 ± 0.34 kg/m3. It also gave a mass density (318.15 K, 10000 kPa) of 673.52 ± 0.37 kg/m3, a mass density (318.15 K, 20000 kPa) of 682.85 ± 0.49 kg/m3 and a mass density (318.15 K, 30000 kPa) of 691.31 ± 0.6 kg/m3. It also gave a mass density (318.15 K, 40000 kPa) of 698.89 ± 0.71 kg/m3, a mass density (318.15 K, 50000 kPa) of 705.82 ± 0.81 kg/m3 and a mass density (318.15 K, 60000 kPa) of 712.36 ± 0.91 kg/m3. The mass density (318.15 K, 65000 kPa) was 715.32 ± 0.96 kg/m3, the mass density (323.15 K, 100 kPa) was 658.32 ± 0.25 kg/m3 and the mass density (323.15 K, 2000 kPa) was 660.53 ± 0.28 kg/m3. The mass density (323.15 K, 5000 kPa) was 664.05 ± 0.31 kg/m3, the mass density (323.15 K, 7000 kPa) was 666.33 ± 0.34 kg/m3 and the mass density (323.15 K, 10000 kPa) was 669.41 ± 0.38 kg/m3. For the same compound, the mass density (323.15 K, 20000 kPa) was 679.17 ± 0.5 kg/m3, the mass density (323.15 K, 30000 kPa) was 687.64 ± 0.61 kg/m3 and the mass density (323.15 K, 40000 kPa) was 695.38 ± 0.72 kg/m3. For the same compound, the mass density (323.15 K, 50000 kPa) was 702.5 ± 0.82 kg/m3, the mass density (323.15 K, 60000 kPa) was 709.15 ± 0.92 kg/m3 and the mass density (323.15 K, 65000 kPa) was 712.32 ± 0.97 kg/m3. For the same compound, the mass density (328.15 K, 100 kPa) was 653.81 ± 0.25 kg/m3, the mass density (328.15 K, 2000 kPa) was 656.27 ± 0.28 kg/m3 and the mass density (328.15 K, 5000 kPa) was 659.84 ± 0.32 kg/m3. It also gave a mass density (328.15 K, 7000 kPa) of 661.99 ± 0.34 kg/m3, a mass density (328.15 K, 10000 kPa) of 665.25 ± 0.38 kg/m3 and a mass density (328.15 K, 20000 kPa) of 675.25 ± 0.5 kg/m3. It also gave a mass density (328.15 K, 30000 kPa) of 684.02 ± 0.61 kg/m3, a mass density (328.15 K, 40000 kPa) of 691.84 ± 0.72 kg/m3 and a mass density (328.15 K, 50000 kPa) of 699.13 ± 0.83 kg/m3. It also gave a mass density (328.15 K, 60000 kPa) of 706.05 ± 0.93 kg/m3 and a mass density (328.15 K, 65000 kPa) of 709.3 ± 0.97 kg/m3.
